Source: patent US12319701B2, “Antagonists of the muscarinic acetylcholine receptor M4” (priority 2019, dated 2025)
pIC50: −log10 of the molar value.

Assays:
[1] = target: T1, Human M4 (Homo sapiens, UniProt P08173); assay: mAChR M4 cell-based functional assay (calcium flux, Fluo-4, M4/Gqi5/CHO-K1 cells); conditions: for remaining activity at 30 µM: CHO-K1, read-out: Human M4 Emin (%), % ACh maximum at 30 μM
T1 construct: expressed in transfected cells; host or cells: CHO-K1 (ATCC), stably co-expressing chimeric G protein Gqi5
T1 sequence (P08173 1-479): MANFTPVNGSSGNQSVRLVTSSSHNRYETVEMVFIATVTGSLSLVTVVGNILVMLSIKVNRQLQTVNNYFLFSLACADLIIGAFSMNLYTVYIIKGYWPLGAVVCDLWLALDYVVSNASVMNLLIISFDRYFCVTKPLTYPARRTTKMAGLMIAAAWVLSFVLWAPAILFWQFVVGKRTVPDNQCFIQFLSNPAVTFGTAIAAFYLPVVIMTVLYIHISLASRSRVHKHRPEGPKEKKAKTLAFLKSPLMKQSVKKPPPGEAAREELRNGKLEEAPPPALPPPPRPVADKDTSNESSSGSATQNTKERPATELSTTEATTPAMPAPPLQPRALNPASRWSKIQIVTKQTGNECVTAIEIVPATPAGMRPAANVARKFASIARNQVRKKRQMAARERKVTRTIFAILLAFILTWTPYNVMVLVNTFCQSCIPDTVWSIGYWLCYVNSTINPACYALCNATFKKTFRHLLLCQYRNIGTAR
Protocol: Human or rat M4 cDNA, along with the chimeric G protein Gqi5, were transfected into Chinese hamster ovary (CHO-K1) cells purchased from the American Type Culture Collection using Lipofectamine2000. M4/Gqi5/CHO cells were grown in Ham's F-12 medium containing 10% heat-inactivated fetal bovine serum (FBS), 20 mM HEPES, 500 μg/mL 418 sulfate, and 200 μg/mL Hygromycin B.
For high throughput measurement of agonist-evoked increases in intracellular calcium, CHO-K1 cells stably expressing muscarinic receptors were plated in growth medium lacking 418 and hygromycin at 15,000 cells/20 μL/well in Greiner 384-well black-walled, tissue culture (TC)-treated, clear-bottom plates (VWR). Cells were incubated overnight at 37° C. and 5% CO2. The next day, cells were washed using an ELX 405 (BioTek) with assay buffer; the final volume was then aspirated to 20 μL. Next, 20 μL of a 2.3 μM stock of Fluo-4/acetoxymethyl ester (Invitrogen, Carlsbad, CA), prepared as a 2.3 mM stock in DMSO and mixed in a 1:1 ratio with 10% (w/v) Pluronic F-127 and diluted in assay buffer, was added to the wells and the cell plates were incubated for 50 min at 37° C. and 5% CO2. Dye was removed by washing with the ELX 405 and the final volume was aspirated to 20 μL. Compound master plates were formatted in a 10 point concentration-response curve (CRC) format (1:3 dilutions) in 100% DMSO with a starting concentration of 10 or 1 mM using a BRAVO liquid handler (Agilent). Test compound CRCs were then transferred to daughter plates (240 nL) using the Echo acoustic plate reformatter (Labcyte, Sunnyvale, CA) and then diluted into assay buffer (40 μL) to a 2× stock using a Thermo Fisher Combi (Thermo Fisher Scientific, Waltham, MA).
Calcium flux was measured using the Functional Drug Screening System (FDSS) 6000 or 7000 (Hamamatsu Corporation, Tokyo, Japan) as an increase in the fluorescent static ratio. Compounds were applied to cells (20 μL, 2×) using the automated system of the FDSS at 2 seconds into the protocol and the data were collected at 1 Hz. At 143 s, 10 μL of an EC20 concentration of the muscarinic receptor agonist acetylcholine was added (5×), followed by the addition of 12 μL of an EC80 concentration of acetylcholine at the 268 s time point (5×). Agonist activity was analyzed as a concentration-dependent increase in calcium mobilization upon compound addition. Positive allosteric modulator activity was analyzed as a concentration-dependent increase in the EC20 acetylcholine response. Antagonist activity was analyzed as a concentration-dependent decrease in the ECK) acetylcholine response; for the purposes of the tables herein, an IC50 (inhibitory concentration 50) was calculated as a concentration-dependent decrease of the response elicited by an ECK) concentration of acetylcholine. Concentration-response curves were generated using a four-parameter logistical equation in XLFit curve fitting software (IDBS, Bridgewater, NJ) for Excel (Microsoft, Redmond, WA) or Prism (GraphPad Software, Inc., San Diego, CA) or the Dotmatics software platform (Dotmatics, Bishop's Stortford, UK).
Compounds were synthesized as described above. Activity (IC50 and Emin) was determined in the mAChR M4 cell-based functional assay as described above and the data are shown in Table 2.

[2] = system: catalepsy induced by the DA receptor antagonist haloperidol; assay: Reversal of haloperidol-induced catalepsy by scopolamine in mice; format: in vivo
From the text: Furthermore, haloperidol-induced catalepsy, a model of parkinsonian motor disability, is reduced in M4 knockout mice as compared to wild-type controls. […] The reversal by scopolamine was uncommonly robust and more pronounced than we observe with agents targeting a number of other targets being evaluated for potential antiparkinsonian effects, including metabotropic glutamate (mGlu) receptors mGlu4 or mGlu5, A2A adenosine receptors, and NMDA receptors. […] Taken together with the extensive studies of M4 modulation of basal ganglia and motor function, these studies provide compelling evidence that M4 is the dominant mAChR subtype involved in the antiparkinsonian effects of non-selective mAChR antagonists and provide support for discovery and development of selective M4 antagonists for treatment of neurodegenerative disease such as PD, dystonia, tardive dyskinesia and other movement disorders.

| SMILES | pIC50 [1] | remaining activity at 30 µM [1] [%] | Reduction of haloperidol-induced catalepsy ([2]; M4 KO mice) | Reversal of haloperidol-induced catalepsy ([2]; WT mice) |
| --- | --- | --- | --- | --- |
| C[C@H]1CCCN(c2nnc(N[C@H]3C[C@@H]4CN(CC5CCOCC5)C[C@@H]4C3)c3ccsc23)C1 [compound 21, 7-((S)-3-methylpiperidin-1-yl)-N-((3aR,5s,6aS)-2-((tetrahydro-2H-pyran-4-yl)methyl)octahydrocyclopenta[c]pyrrol-5-yl)thieno[2,3-d]pyridazin-4-amine] | 7.82 | 4 |  |  |
| FC1(F)CCN(c2nnc(N[C@H]3C[C@@H]4CN(CC5CCOCC5)C[C@@H]4C3)c3c2CCCC3)CC1 [compound 22, 4-(4,4-difluoropiperidin-1-yl)-N-((3aR,5s,6aS)-2-((tetrahydro-2H-pyran-4-yl)methyl)octahydrocyclopenta[c]pyrrol-5-yl)-5,6,7,8-tetrahydrophthalazin-1-amine] | 7.84 | 3 |  |  |
| Fc1ccc(-c2nnc(N[C@H]3C[C@@H]4CN(CC5CCOCC5)C[C@@H]4C3)c3c2CCCC3)cc1 [compound 26, 4-(4-fluorophenyl)-N-((3aR,5s,6aS)-2-((tetrahydro-2H-pyran-4-yl)methyl)octahydrocyclopenta[c]pyrrol-5-yl)-5,6,7,8-tetrahydrophthalazin-1-amine] | 7.23 | 3 |  |  |
| CN1[C@@H]2C[C@@H](OC(=O)[C@H](CO)c3ccccc3)C[C@H]1[C@@H]1O[C@@H]12 [scopolamine] |  |  | ineffective in reducing catalepsy | completely reversed |

Continued, in another order:

| pIC50 [1] | remaining activity at 30 µM [1] [%] | SMILES | Reduction of haloperidol-induced catalepsy ([2]; M4 KO mice) | Reversal of haloperidol-induced catalepsy ([2]; WT mice) |
| --- | --- | --- | --- | --- |
| 8.85 | 3 | [2H]C([2H])(C1CCOCC1)N1C[C@H]2C[C@H](Nc3nnc(-c4cc(F)ccc4C)c4sccc34)C[C@H]2C1 [compound 19, 7-(5-fluoro-2-methylphenyl)-N-((3aR,5s,6aS)-2-((tetrahydro-2H-pyran-4-yl)methyl-d2)octahydrocyclopenta[c]pyrrol-5-yl)thieno[2,3-d]pyridazin-4-amine] |  |  |
| 8.25 | 3 | FC1(F)CCN(c2nnc(N[C@H]3C[C@@H]4CN(CC5CCOCC5)C[C@@H]4C3)c3ccsc23)CC1 [compound 20, 7-(4,4-difluoropiperidin-1-yl)-N-((3aR,5s,6aS)-2-((tetrahydro-2H-pyran-4-yl)methyl)octahydrocyclopenta[c]pyrrol-5-yl)thieno[2,3-d]pyridazin-4-amine] |  |  |
| 8.27 | 3 | Fc1ccc(F)c(-c2nnc(N[C@H]3C[C@@H]4CN(CC5CCOCC5)C[C@@H]4C3)c3c2CCCC3)c1 [compound 23, 4-(2,5-difluorophenyl)-N-((3aR,5s,6aS)-2-((tetrahydro-2H-pyran-4-yl)methyl)octahydrocyclopenta[c]pyrrol-5-yl)-5,6,7,8-tetrahydrophthalazin-1-amine] |  |  |
| 8.21 | 3 | Fc1ccccc1-c1nnc(N[C@H]2C[C@@H]3CN(CC4CCOCC4)C[C@@H]3C2)c2c1CCCC2 [compound 24, 4-(2-fluorophenyl)-N-((3aR,5s,6aS)-2-((tetrahydro-2H-pyran-4-yl)methyl)octahydrocyclopenta[c]pyrrol-5-yl)-5,6,7,8-tetrahydrophthalazin-1-amine] |  |  |
| 8.04 | 3 | Fc1cccc(-c2nnc(N[C@H]3C[C@@H]4CN(CC5CCOCC5)C[C@@H]4C3)c3c2CCCC3)c1 [compound 25, 4-(3-fluorophenyl)-N-((3aR,5s,6aS)-2-((tetrahydro-2H-pyran-4-yl)methyl)octahydrocyclopenta[c]pyrrol-5-yl)-5,6,7,8-tetrahydrophthalazin-1-amine] |  |  |
| 7.92 | 3 | [2H]C([2H])(C1CCOCC1)N1C[C@H]2C[C@H](Nc3nnc(-c4cc(F)ccc4F)c4ccccc34)C[C@H]2C1 [compound 27, 4-(2,5-difluorophenyl)-N-((3aR,5s,6aS)-2-((tetrahydro-2H-pyran-4-yl)methyl-d2)octahydrocyclopenta[c]pyrrol-5-yl)phthalazin-1-amine] |  |  |
